Data: article PMC3931136 (Scientific Reports, 2014)

Tested on: S. suis BgaC
Assay: p-nitrophenol release, absorbance at […] nm
Assay type: biochemical, Streptococcus suis
Settings: pH 5.5, 42 °C, 30 min (stated optimum); PBS, 10 mM MgCl2, 10 mM DTT

Km: 398 µM
Structure (SMILES): O=[N+]([O-])c1ccc(O[C@@H]2O[C@H](CO)[C@H](O)[C@H](O)[C@H]2O)cc1 [pNPG, p-nitrophenyl-β-galactopyranoside]
